Results from patent US8241647B2, “Amphiphilic molecule, molecular assembly comprising the amphiphilic molecule, and use of the molecular assembly” (Waseda University, priority 2007, dated 2012).
Read-outs that look alike come from different tables or passages of the source.

How the values were obtained:
[1] = Degree of fusion with anionic liposome (Example 9); details: liposome compound/cholesterol/PEG-Glu2C18, 37°C, 30 minutes
Experimental: In a manner similar to that in Example 2, the degree of fusion of the pH-responsive liposome with respect to the anionic liposome (DOPC/DPPG, 5/1 (molar ratio)) was calculated. The measurement method was as follows. 50 μL of 1 mM anionic liposome and 50 μL of 9 mM (converted to the mixed lipid basis) pH-responsive liposome were added to 1.9 mL of each of acetate buffers with different pHs and allowed to stand at 37° C. 30 minutes later, […] of the mixture was dividedly poured and added to 1.9 mL of HEPES buffer (pH 7.4). The resultant mixture was transferred to a quartz cell and subjected to fluorescence measurement (λex: 460 nm, 530 nm). The measurement was carried out using RF-5300PC manufactured by Shimadzu.

[2] = Measurement of zeta potential of liposomes; format: physicochemical; details: 37°C
Experimental: Portions of the prepared liposome ([lipid]=10 mg/ml) were respectively added to acetate buffers with different pHs (7.4, 7, 6, 5, 4) (30 mM) to the final concentration of [lipid]=1 mg/mL, and then the zeta potential at 37° C. was measured. Zetasizer 4 manufactured by Malvern was used. A capillary cell was filled with a liposome-dispersed liquid obtained by dilution to the measurement concentration, and the measurement was performed at 37° C. 3 times.
Portions of the prepared liposome ([lipid]=10 mg/ml) were respectively added to acetate buffers with different pHs (7.4, 7, 6, 5, 4) (20 mM) to the final concentration of [lipid]=1 mg/mL, and then the zeta potential at 37° C. was measured.
Portions of each of the prepared liposomes ([lipid]=10 mg/ml) were respectively added to acetate buffers with different pHs (7.4, 7, 6, 5, 4) (20 mM) to the final concentration of [lipid]=1 mg/mL, and then the zeta potential at 37° C. was measured.

[3] = Concentration of Compound 3 in rat plasma after i.v. liposome (LC/MS/MS); format: in vivo, SD rat; details: male, Sprague-Dawley, iv, 40 mg/kg; for AUC / Cmax / half-life / concentration at 5 min / concentration at 1 h / concentration at 2 h / concentration at 6 h / concentration at 24 h: rat, plasma; for concentration at 5 min / concentration at 1 h / concentration at 2 h / concentration at 6 h / concentration at 24 h: SD rat, i.v. BSA-encapsulated pH-responsive liposome ([Lipid]=20 mg/mL, 2 ml/kg), read-out: GGLG concentration in plasma
Experimental: A pH-responsive liposome was prepared from mixed lipid (Compound (3)/cholesterol/PEG-Glu2C18=5/5/0.03 (mol)) using the high-pressure extrusion method. In the preparation, the particle size of the liposome was adjusted to 200 to 250 nm. Further, BSA was encapsulated in the internal aqueous phase. The prepared pH-responsive liposome ([Lipid]=20 mg/mL) was intravenously administered to a SD rat (male, body weight of 300 g or less) via the tail vein in an amount of 2 ml/kg under ether anesthesia. The number of rats used was N=3. Prior to the administration and 5 minutes, 1, 2, 6 and 24 hours after the administration, blood was collected (about 500 μL). The obtained blood was subjected to centrifugation (2,000×g, 20 minutes) to obtain plasma (liposome-suspended plasma), and this was preserved at −80° C. Further, after blood was collected 24 hours after the administration, the liver, spleen, lung and kidney were isolated, the wet weight thereof was measured, and these materials were preserved at −80° C. After that, homogenization was carried out using a saline in an amount 4 times greater than the wet weight of the organs.
A material in which the procedure is carried out until 100 μL of methanol is added to 10 μL of homogenate solution of plasma and the organs was used as a sample for measurement of specimen.
To the above-described sample for measurement, a solution to which an internal standard material (1,5-dihexadecyl N-glutamyl-L-glutamate (αGlu-Glu2C16)) was added (900 μL) was added, and the mixture was subjected to vortex stirring. After that, the mixture was allowed to stand at room temperature for at least 10 minutes. After that, the mixture was subjected to vortex stirring again and centrifuged at 4° C. at 10,000×g for 15 minutes. The obtained supernatant was transferred to an LC vial.
As a column, CAPLCELLPAK C18 MG (Shiseido Co., Ltd.) (3 μm, 2.0×50 mm) was used, and the column temperature was set at 40° C. Gradient elution was carried out using 0.1% acetic acid aqueous solution (A)-0.1% methanol acetate (B). The flow rate was 0.25 mL/min. The temperature of the autoinjector was set at 15° C. Regarding a needle washing solution, chloroform/methanol (1:1) was used for a washing pump, and methanol was used for a washing port.
The eluent that was separated by HPLC was subjected to positive ESI ionization and measured in the MRM mode.
An analyte for producing a calibration curve for measurement of plasma was measured, and a calibration curve of 1-300 μg/mL of plasma was prepared with weighting of 1/x^2 and Quadratic. The peak area of the analyte for measurement of plasma/IS peak area was substituted into the obtained formula of the calibration curve to calculate the concentration of Compound 3 in plasma. FIG. 8 is a graph showing the results. In FIG. 8, (-⋄-), (--[…]--) and (--Δ--) show the results of animal 1, animal 2 and animal 3, respectively.

[4] = SD rat plasma, i.v. liposome ([Lipid]=20 mg/mL, 2 ml/kg), animal 1
[5] = SD rat plasma, i.v. liposome ([Lipid]=20 mg/mL, 2 ml/kg), Average
[6] = SD rat plasma, i.v. liposome ([Lipid]=20 mg/mL, 2 ml/kg), animal 2
[7] = SD rat plasma, i.v. liposome ([Lipid]=20 mg/mL, 2 ml/kg), animal 3

zeta potential of the liposome ([2]; liposome Compound 3/cholesterol/PEG-Glu2C18 (5/5/0.03), pH 7.4): negative
zeta potential as pH was decreased ([2]; liposome Compound 3/cholesterol/PEG-Glu2C18 (5/5/0.03 molar ratio), acetate buffers pH 7.4-4 (30 mM)): changed from negative to positive
pH at which the zeta potential changed from negative to positive ([2]; liposome compound/cholesterol/PEG-Glu2C18 (5/5/0.03 molar ratio), acetate buffers 20 mM): about 5.7
Tmax [3, 4]: 4.98 min
AUC [3, 5]: 309 µg·h/mL
Cmax [3, 5]: 132000 ng/mL
half-life ([3]; SD rat plasma, i.v. liposome ([Lipid]=20 mg/mL, 2 ml/kg), Average, read-out: t½ (converted)): 4.84 h
AUC [3, 4]: 266 µg·h/mL
Cmax [3, 4]: 105000 ng/mL
half-life ([3]; SD rat plasma, i.v. liposome ([Lipid]=20 mg/mL, 2 ml/kg), animal 1, read-out: t½ (converted)): 5.03 h
AUC [3, 6]: 364 µg·h/mL
Cmax [3, 6]: 153000 ng/mL
half-life ([3]; SD rat plasma, i.v. liposome ([Lipid]=20 mg/mL, 2 ml/kg), animal 2, read-out: t½ (converted)): 4.31 h
AUC [3, 7]: 297 µg·h/mL
Cmax [3, 7]: 136000 ng/mL
half-life ([3]; SD rat plasma, i.v. liposome ([Lipid]=20 mg/mL, 2 ml/kg), animal 3, read-out: t½ (converted)): 5.18 h
concentration at 5 min ([3]; Average value (N=3)): 132000 ng/mL
concentration at 5 min ([3]; animal 1): 105000 ng/mL
concentration at 5 min ([3]; animal 2): 153000 ng/mL
concentration at 5 min ([3]; animal 3): 136000 ng/mL
concentration at 1 h ([3]; Average value (N=3)): 53600 ng/mL
concentration at 1 h ([3]; animal 1): 44700 ng/mL
concentration at 1 h ([3]; animal 2): 62400 ng/mL
concentration at 1 h ([3]; animal 3): 53500 ng/mL
concentration at 2 h ([3]; Average value (N=3)): 31200 ng/mL
concentration at 2 h ([3]; animal 1): 25800 ng/mL
concentration at 2 h ([3]; animal 2): 39300 ng/mL
concentration at 2 h ([3]; animal 3): 28500 ng/mL
concentration at 6 h ([3]; Average value (N=3)): 8900 ng/mL
concentration at 6 h ([3]; animal 1): 8390 ng/mL
concentration at 6 h ([3]; animal 2): 10200 ng/mL
concentration at 6 h ([3]; animal 3): 8120 ng/mL
concentration at 24 h ([3]; Average value (N=3)): 1130 ng/mL
concentration at 24 h ([3]; animal 1): 1020 ng/mL
concentration at 24 h ([3]; animal 2): 1200 ng/mL
concentration at 24 h ([3]; animal 3): 1170 ng/mL
half-life ([3]; from concentration in rat plasma, i.v. pH-responsive liposome, read-out: half-life of Compound 3 (converted)): 4.8 h
Compound: CCCCCCCCCCCCCCCCOC(=O)CCC(NC(=O)C(CCCCNC(=O)C(N)CCC(=O)O)NC(=O)C(N)CCC(=O)O)C(=O)OCCCCCCCCCCCCCCCC (stereo not drawn) [Compound 3]
degree of fusion ([1]; pH 5.5 (maximum)): about 60%
degree of fusion ([1]; pH 7.4): about 15%
